Patent US20250255847A1, “[…]s: Novel Drugs for Triple Negative Breast Cancer” (SIMMARON RSEARCH INC, priority 2024, published 2025)

Molecular target: T1, STAT3 (pY705, pS727) (Homo sapiens, UniProt P40763)
T1 construct: endogenous in cells; host or cells: MDA-MB-468
Assay: JAK/STAT phospho antibody array, phospho-STAT3 in EGF-treated MDA-MB-468 cells
Format: cell-based
Settings: EGF (25 ng) + 5 nM compound, 6 hrs
Method: FIG. 5 illustrates an embodiment of the present invention and illustrates evaluations of SIM-1 and SIM-2 as STAT3 inhibitors. (A) Protein thermal shift assay was performed to assess the melting of purified recombinant STAT3 (blue; 0.5 μg protein) (Tm=melting temperature=68.88° C.). The representative melting curves were derived after adding SIM-1 (red; 4 nM), SIM-2 (purple; 8 nM), and positive control stattic (grey; 20 nM) to the STAT3 protein. The differences of melting temperature (ΔTm) between pure protein and protein+ligands are −4.54° C., −4.16° C., and 0.39° C. for SIM-1, SIM-2, and stattic (ΔTm^cut-off>2° C.). […] Each colored arrowhead represents a specific phosphoprotein, and the description was added in the bottom of array images. […] Similarly, full-length STAT5b protein melting was assessed with (J) SIM-1, (K) SIM-2, and (L) stattic. […]
Protein array. […] After that, cells were scrapped with 1×TBS, lysed with lysis buffer supplemented with protease and phosphatase inhibitor cocktail, measured for total protein concentration ([…]), diluted 5 times with assay diluent buffer and then applied along with biotin-labeled probes on the glass membrane coated with antibodies. […]
Next, the present invention evaluated if these compounds as disclosed in the present invention as small-molecule inhibitors targeting STAT3 activation, inhibited the activation of STAT3, but not other STATs. […]

T1 sequence (P40763 whole entry): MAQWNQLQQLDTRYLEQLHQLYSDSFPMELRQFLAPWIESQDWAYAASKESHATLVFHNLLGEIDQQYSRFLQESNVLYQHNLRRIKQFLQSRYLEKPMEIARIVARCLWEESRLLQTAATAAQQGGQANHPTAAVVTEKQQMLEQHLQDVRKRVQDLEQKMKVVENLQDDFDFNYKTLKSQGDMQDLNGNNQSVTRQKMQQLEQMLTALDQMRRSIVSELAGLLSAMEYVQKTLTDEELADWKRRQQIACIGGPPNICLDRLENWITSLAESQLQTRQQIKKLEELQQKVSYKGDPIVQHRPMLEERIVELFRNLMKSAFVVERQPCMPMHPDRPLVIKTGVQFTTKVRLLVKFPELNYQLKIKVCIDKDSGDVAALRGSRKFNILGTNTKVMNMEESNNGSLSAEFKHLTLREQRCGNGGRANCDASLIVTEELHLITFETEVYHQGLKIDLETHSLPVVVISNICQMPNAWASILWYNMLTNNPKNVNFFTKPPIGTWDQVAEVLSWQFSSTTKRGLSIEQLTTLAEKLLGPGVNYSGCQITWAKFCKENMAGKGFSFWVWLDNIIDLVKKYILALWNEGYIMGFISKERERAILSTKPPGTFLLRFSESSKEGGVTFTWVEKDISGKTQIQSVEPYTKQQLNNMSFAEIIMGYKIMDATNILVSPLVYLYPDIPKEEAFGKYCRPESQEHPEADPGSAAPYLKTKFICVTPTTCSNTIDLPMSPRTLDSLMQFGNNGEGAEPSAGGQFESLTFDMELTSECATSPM

SMILES	levels of pY705 STAT3
O=C(O)CCC(=O)NCc1csc2ccc(Cl)cc12 [SIM-1, 4-[(5-chloro-1-benzothiophen-3-yl)methylamino]-4-oxobutanoic acid]	strongly and selectively suppressed
CCOC(=O)c1c(NC(C)=O)sc2c(Cl)c(/C=N/O)ccc12 [SIM-2, ethyl 2-acetamido-7-chloro-6-(hydroxyiminomethyl)-1-benzothiophene-3-carboxylate]	strongly and selectively suppressed
